PubChem BioAssay (NCI)
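Growth conditions: 96-well plates. Treatment: test compound, 48 hours, 5 concentrations. Analysis: linear interpolation between bracketing concentrations; unreached endpoints set to highest concentration. Abbreviation: GI50, concentration required for 50% inhibition of growth. Definition used: TGI = concentration required for complete inhibition of growth.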

Legend:
Assay in all cases: DTP human tumour cell line panel, 48 h
NCI-H460 lung = tested on: NCI-H460 lung
MALME-3M melanoma = tested on: MALME-3M melanoma
OVCAR-8 ovarian = tested on: OVCAR-8 ovarian
BT-549 breast = tested on: BT-549 breast
EKVX NSCLC = tested on: EKVX NSCLC
CCRF-CEM leukemia = tested on: CCRF-CEM leukemia
A498 renal = tested on: A498 renal
SN12C renal = tested on: SN12C renal
SF-539 CNS = tested on: SF-539 CNS
T-47D breast = tested on: T-47D breast
HCC-2998 colon = tested on: HCC-2998 colon
IGROV1 ovarian = tested on: IGROV1 ovarian
SK-MEL-5 melanoma = tested on: SK-MEL-5 melanoma
SR leukemia = tested on: SR leukemia
LOX IMVI melanoma = tested on: LOX IMVI melanoma
UACC-62 melanoma = tested on: UACC-62 melanoma
OVCAR-5 ovarian = tested on: OVCAR-5 ovarian
RXF 393 renal = tested on: RXF 393 renal
K-562 leukemia = tested on: K-562 leukemia
SW-620 colon = tested on: SW-620 colon
PC-3 prostate = tested on: PC-3 prostate
NCI-H226 lung = tested on: NCI-H226 lung
SK-OV-3 ovarian = tested on: SK-OV-3 ovarian
HOP-92 NSCLC = tested on: HOP-92 NSCLC
MCF7 breast = tested on: MCF7 breast
RPMI-8226 leukemia = tested on: RPMI-8226 leukemia
SK-MEL-28 melanoma = tested on: SK-MEL-28 melanoma
786-0 renal = tested on: 786-0 renal
MDA-MB-231 breast = tested on: MDA-MB-231 breast
U251 CNS = tested on: U251 CNS
HT29 colon = tested on: HT29 colon
OVCAR-4 ovarian = tested on: OVCAR-4 ovarian
MOLT-4 leukemia = tested on: MOLT-4 leukemia
COLO 205 colon = tested on: COLO 205 colon
SNB-75 CNS = tested on: SNB-75 CNS
A549 NSCLC = tested on: A549 NSCLC
SF-295 CNS = tested on: SF-295 CNS
NCI-H522 lung = tested on: NCI-H522 lung
NCI-H23 lung = tested on: NCI-H23 lung
SF-268 CNS = tested on: SF-268 CNS
M14 melanoma = tested on: M14 melanoma
NCI/ADR-RES ovarian = tested on: NCI/ADR-RES ovarian
MDA-MB-435 = tested on: MDA-MB-435
OVCAR-3 ovarian = tested on: OVCAR-3 ovarian
UACC-257 melanoma = tested on: UACC-257 melanoma
HCT-116 colon = tested on: HCT-116 colon
CAKI-1 renal = tested on: CAKI-1 renal
KM12 colon = tested on: KM12 colon
HCT-15 colon = tested on: HCT-15 colon
SNB-19 CNS = tested on: SNB-19 CNS
TK-10 renal = tested on: TK-10 renal
HOP-62 NSCLC = tested on: HOP-62 NSCLC
SK-MEL-2 melanoma = tested on: SK-MEL-2 melanoma
DU-145 prostate = tested on: DU-145 prostate
HS 578T breast = tested on: HS 578T breast
HL-60(TB) leukemia = tested on: HL-60(TB) leukemia
UO-31 renal = tested on: UO-31 renal
ACHN renal = tested on: ACHN renal

Compound: Cn1cc(-c2cnc3ccc4ccc(CS(=O)(=O)NCc5ccccn5)cc4c(=O)c3c2)cn1
- GI50 (NCI-H460 lung): 15.7 µM
- TGI (NCI-H460 lung): 49.7 µM
- GI50 (MALME-3M melanoma): 21.3 µM
- TGI (MALME-3M melanoma): 73.1 µM
- GI50 (OVCAR-8 ovarian): 18.8 µM
- TGI (OVCAR-8 ovarian): > 100 µM
- GI50 (BT-549 breast): 12.4 µM
- TGI (BT-549 breast): 42.6 µM
- GI50 (EKVX NSCLC): 44.9 µM
- TGI (EKVX NSCLC): > 100 µM
- GI50 (CCRF-CEM leukemia): 9.08 µM
- TGI (CCRF-CEM leukemia): > 93.8 µM
- GI50 (A498 renal): 18.1 µM
- TGI (A498 renal): > 55.6 µM
- GI50 (SN12C renal): 19 µM
- TGI (SN12C renal): > 93.3 µM
- GI50 (SF-539 CNS): 16.9 µM
- TGI (SF-539 CNS): 41.2 µM
- GI50 (T-47D breast): 16.4 µM
- TGI (T-47D breast): > 93 µM
- GI50 (HCC-2998 colon): 13.4 µM
- TGI (HCC-2998 colon): 27.9 µM
- GI50 (IGROV1 ovarian): 22.1 µM
- TGI (IGROV1 ovarian): > 100 µM
- GI50 (SK-MEL-5 melanoma): 11.3 µM
- TGI (SK-MEL-5 melanoma): 24 µM
- GI50 (SR leukemia): 3.17 µM
- TGI (SR leukemia): > 100 µM
- GI50 (LOX IMVI melanoma): 13.5 µM
- TGI (LOX IMVI melanoma): 35.3 µM
- GI50 (UACC-62 melanoma): 12.5 µM
- TGI (UACC-62 melanoma): 39.4 µM
- GI50 (OVCAR-5 ovarian): 29.5 µM
- TGI (OVCAR-5 ovarian): > 100 µM
- GI50 (RXF 393 renal): 12.9 µM
- TGI (RXF 393 renal): 35.1 µM
- GI50 (K-562 leukemia): 4.78 µM
- TGI (K-562 leukemia): > 100 µM
- GI50 (SW-620 colon): 15.6 µM
- TGI (SW-620 colon): > 100 µM
- GI50 (PC-3 prostate): 31.3 µM
- TGI (PC-3 prostate): > 100 µM
- GI50 (NCI-H226 lung): 14.8 µM
- TGI (NCI-H226 lung): 36 µM
- GI50 (SK-OV-3 ovarian): 26.5 µM
- TGI (SK-OV-3 ovarian): > 100 µM
- GI50 (HOP-92 NSCLC): 6.19 µM
- TGI (HOP-92 NSCLC): > 77.3 µM
- GI50 (MCF7 breast): 7.7 µM
- TGI (MCF7 breast): > 100 µM
- GI50 (RPMI-8226 leukemia): 11.6 µM
- TGI (RPMI-8226 leukemia): > 75.2 µM
- GI50 (SK-MEL-28 melanoma): 15 µM
- TGI (SK-MEL-28 melanoma): 35.4 µM
- GI50 (786-0 renal): 27 µM
- TGI (786-0 renal): > 100 µM
- GI50 (MDA-MB-231 breast): 19.6 µM
- TGI (MDA-MB-231 breast): > 68.4 µM
- GI50 (U251 CNS): 21.6 µM
- TGI (U251 CNS): > 100 µM
- GI50 (HT29 colon): 15.1 µM
- TGI (HT29 colon): > 100 µM
- GI50 (OVCAR-4 ovarian): 10.3 µM
- TGI (OVCAR-4 ovarian): 68.1 µM
- GI50 (MOLT-4 leukemia): 9.09 µM
- TGI (MOLT-4 leukemia): 52.5 µM
- GI50 (COLO 205 colon): 18.6 µM
- TGI (COLO 205 colon): > 55.8 µM
- GI50 (SNB-75 CNS): 6.45 µM
- TGI (SNB-75 CNS): 47.8 µM
- GI50 (A549 NSCLC): 25.2 µM
- TGI (A549 NSCLC): > 100 µM
- GI50 (SF-295 CNS): 3.61 µM
- TGI (SF-295 CNS): > 100 µM
- GI50 (NCI-H522 lung): 22 µM
- TGI (NCI-H522 lung): > 95.9 µM
- GI50 (NCI-H23 lung): 16.2 µM
- TGI (NCI-H23 lung): > 84.7 µM
- GI50 (SF-268 CNS): 20.9 µM
- TGI (SF-268 CNS): > 100 µM
- GI50 (M14 melanoma): 11.9 µM
- TGI (M14 melanoma): 33.6 µM
- GI50 (NCI/ADR-RES ovarian): 23.5 µM
- TGI (NCI/ADR-RES ovarian): > 100 µM
- GI50 (MDA-MB-435): 3.33 µM
- TGI (MDA-MB-435): 27.5 µM
- GI50 (OVCAR-3 ovarian): 14.6 µM
- TGI (OVCAR-3 ovarian): 45.8 µM
- GI50 (UACC-257 melanoma): 15 µM
- TGI (UACC-257 melanoma): 32.2 µM
- GI50 (HCT-116 colon): 16.3 µM
- TGI (HCT-116 colon): 54.1 µM
- GI50 (CAKI-1 renal): 14.2 µM
- TGI (CAKI-1 renal): > 100 µM
- GI50 (KM12 colon): 10.5 µM
- TGI (KM12 colon): 52 µM
- GI50 (HCT-15 colon): 5.67 µM
- TGI (HCT-15 colon): 37.1 µM
- GI50 (SNB-19 CNS): 26.6 µM
- TGI (SNB-19 CNS): > 100 µM
- GI50 (TK-10 renal): 21.6 µM
- TGI (TK-10 renal): > 83.1 µM
- GI50 (HOP-62 NSCLC): 17.6 µM
- TGI (HOP-62 NSCLC): > 100 µM
- GI50 (SK-MEL-2 melanoma): 11.8 µM
- TGI (SK-MEL-2 melanoma): 53.4 µM
- GI50 (DU-145 prostate): 33.7 µM
- TGI (DU-145 prostate): > 100 µM
- GI50 (HS 578T breast): 14 µM
- TGI (HS 578T breast): > 100 µM
- GI50 (HL-60(TB) leukemia): 9.15 µM
- TGI (HL-60(TB) leukemia): 41.8 µM
- GI50 (UO-31 renal): 12.6 µM
- TGI (UO-31 renal): > 100 µM
- GI50 (ACHN renal): 16.4 µM
- TGI (ACHN renal): > 100 µM
